Drawing on patent US20160296499A1, “Spiroindoline Antiparasitic Derivatives” (ZOETIS SERVICES LLC, priority 2013, published 2016), this text covers minimal effective concentration and Ki for 19 molecules.

A word on the Ki: it is a measure of affinity in units of concentration, obtained from inhibition or displacement.

Read-outs that look alike come from different tables or passages of the source.

In one assay the test system is Haemonchus contortus L3. Put plainly: Haemonchus contortus, Larvae Stage 3 (HcL3) In Vitro Assay. The settings on record: Haemonchus contortus.
The subject of assay [1] is Dirofilaria immitis microfilariae. Put plainly: Dirofilaria immitis, Microfilariae (DiMF) In Vitro Assay. The settings on record: Dirofilaria immitis.
Assay [2] deals with T1, bovine vesicular acetylcholine transporter (VAChT) (Bos taurus, UniProt E1BK36).
T1 sequence (E1BK36 1-524): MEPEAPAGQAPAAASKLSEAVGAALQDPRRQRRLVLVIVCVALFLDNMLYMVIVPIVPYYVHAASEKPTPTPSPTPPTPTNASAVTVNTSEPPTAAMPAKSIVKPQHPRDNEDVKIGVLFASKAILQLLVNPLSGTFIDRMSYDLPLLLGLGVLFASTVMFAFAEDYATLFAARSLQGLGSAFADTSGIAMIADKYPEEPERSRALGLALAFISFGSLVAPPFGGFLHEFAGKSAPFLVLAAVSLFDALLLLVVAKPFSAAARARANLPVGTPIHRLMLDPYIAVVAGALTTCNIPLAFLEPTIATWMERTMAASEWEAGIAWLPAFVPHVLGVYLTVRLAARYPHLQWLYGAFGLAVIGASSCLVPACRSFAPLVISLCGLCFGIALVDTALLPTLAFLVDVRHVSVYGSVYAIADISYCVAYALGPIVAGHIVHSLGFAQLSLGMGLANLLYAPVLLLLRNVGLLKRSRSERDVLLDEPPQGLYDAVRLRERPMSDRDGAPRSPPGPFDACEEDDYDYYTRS
Description: Radioligand Binding Assay. As to conditions: Bovine binding Ki, CHO-K1 membranes with recombinant bovine VAChT, [3H]Compound X6 0.3 nM.
Description: To measure binding affinity, CHO-K1 cells recombinantly expressing the bovine VAChT was generated as a stable cell line and subsequently used to produce membrane preparations.
Radioligand binding assays were conducted in disposable polypropylene 96-well plates. VAChT competition assays were initiated by the addition of bovine recombinant membrane homogenate (50 μg/well) in assay buffer (50 mM Tris-HCl, 120 mM NaCl, 5 mM KCl, 1 mM MgCl, and 2 mM CaCl, pH 7.4) containing [^3H]Compound X6 (0.3 nM) with or without competing ligand. The assay was allowed to equilibrate for 120 minutes at room temperature, before being filtered onto GF/C unifilter plates pre-coated in 0.3% polyethylenimine (Perkin Elmer Life and Analytical Sciences, Boston, Mass.) with a Filtermate 96 harvester (PerkinElmer Life and Analytical Sciences). Filters were washed in ice-cold 50 mM Tris-HCl, pH 7.4 buffer and then counted for radioactivity in a TopCount microplate scintillation counter after addition of 50 μL Microscint 20 (PerkinElmer). Non-specific binding was measured in the presence of 10 μM Compound X6. Apparent dissociation constants (Ki values) from the competition experiments were calculated using an iterative nonlinear regression curve-fitting program (GraphPAD Prism 6.0 Software, San Diego, Calif.) and are reported in Table 2.

[3] abbreviates: 96 h, read-out: HcL3 MEC, Minimal Effective Concentration whereby worm motility is inhibited by approximately 70%, 37° C., tested 0.001-100 μM.
[4] abbreviates: 72 h, read-out: Di MF, MEC, decrease in microfilariae motility by visual assessment, curve starting at 100 μM.
Where [5] appears, read: 96 hours, 37° C., read-out: HcL3 MEC.

In the case of `O=C(NCc1ccnc(Cl)c1)N1CC2(CCN(C/C=C/c3ccc(Cl)cc3)CC2)c2cc(SC(F)(F)F)ccc21` [Example 80, (E)-1′-(3-(4-chlorophenyl)allyl)-N-((2-chloropyridin-4-yl)methyl)-5-(trifluoromethylthio)spiro[indoline-3,4′-piperidine]-1-carboxamide], the values for the minimal effective concentration (with Haemonchus contortus L3 (setting [3]); in assay [1] (setting [4])) were 100 µM and 10 µM, respectively. Also, the Ki in assay [2] turned out to be 191 nM.

On to `O=C(NCc1cnc(Cl)s1)N1CC2(CCN(C/C=C/c3ccc(Cl)c(Cl)c3)CC2)c2c1ccc1scnc21` [Example 21, (E)-N-((2-chlorothiazol-5-yl)methyl)-1-(3-(3,4-dichlorophenyl)allyl)spiro[piperidine-4,8′-thiazolo[4,5-e]indole]-6′(7′H)-carboxamide], for which the minimal effective concentration was determined as 69.1 µM with Haemonchus contortus L3 (setting [5]) and 10 µM in assay [1] (72 hours, read-out: Di MF). Moreover, the Ki in assay [2] came to 105 nM.

Turning to `O=C(NCC1CCOC1)N1CC2(CCN(C/C=C/c3ccc(Cl)c(Cl)c3)CC2)c2c1ccc1scnc21` (racemic) [Example 35, (+/−)(E)-1-(3-(3,4-dichlorophenyl)allyl)-N-((tetrahydrofuran-3-yl)methyl)spiro[piperidine-4,8′-thiazolo[4,5-e]indole]-6′(7′H)-carboxamide], the values for the minimal effective concentration (in the assay on Haemonchus contortus L3 (setting [3]); in assay [1] (setting [4])) were 100 µM and 3.3 µM, respectively. In assay [2], the Ki amounted to 731 nM.

For the molecule `O=C(NCc1ccnc(Cl)c1)N1CC2(CCN(C/C=C/c3ccc(F)cc3)CC2)c2c1ccc(F)c2Cl` [Example 158, (E)-4-chloro-N-((2-chloropyridin-4-yl)methyl)-5-fluoro-1′-(3-(4-fluorophenyl)allyl)spiro[indoline-3,4′-piperidine]-1-carboxamide], the minimal effective concentration with Haemonchus contortus L3 (setting [5]) amounted to 9.9 µM; in assay [1] (72 hours, read-out: Di MF), 4.3 µM. Moreover, the Ki in assay [2] was 54.8 nM.

Take `N#Cc1ccc(/C=C/CN2CCC3(CC2)CN(C(=O)NCc2ccnc(C(F)(F)F)c2)c2ccc(OC(F)(F)F)cc23)cc1` [Example 176, (E)-1′-(3-(4-cyanophenyl)allyl)-5-(trifluoromethoxy)-N-((2-(trifluoromethyl)pyridin-4-yl)methyl)spiro[indoline-3,4′-piperidine]-1-carboxamide]: the minimal effective concentration in the assay with Haemonchus contortus L3 (setting [3]) is 33 µM; in assay [1] (setting [4]), 3.3 µM. Moreover, in assay [2], the Ki was found to be 288 nM.

Consider `N#Cc1cc2c(cn1)N(C(=O)NCc1ccnc(Cl)c1)CC21CCN(C/C=C/c2ccc(Cl)cc2)CC1` [Example 86, (E)-1-(3-(4-chlorophenyl)allyl)-N-((2-chloropyridin-4-yl)methyl)-5′-cyanospiro[piperidine-4,3′-pyrrolo[2,3-c]pyridine]-1′(2′H)-carboxamide], for which the minimal effective concentration in the assay with Haemonchus contortus L3 (setting [3]) was 3.3 µM; in assay [1] (setting [4]), 5.7 µM. The Ki in assay [2] is 31.7 nM.

For `N#Cc1ccc(/C=C/CN2CCC3(CC2)CN(C(=O)NCc2ccnc(Cl)c2)c2cc(-c4ccccc4C(F)(F)F)ccc23)cc1` [Example 96, (E)-N-((2-chloropyridin-4-yl)methyl)-1′-(3-(4-cyanophenyl)allyl)-6-(2-(trifluoromethyl)phenyl)spiro[indoline-3,4′-piperidine]-1-carboxamide], the values for the minimal effective concentration (with Haemonchus contortus L3 (setting [3]); in assay [1] (setting [4])) were 100 µM and 5.7 µM, respectively. For the same molecule, the Ki in assay [2] turned out to be 25.4 nM.

Regarding `O=C(NCc1ccnc(F)c1)N1CC2(CCN(C/C=C/c3ccc(Cl)cc3)CC2)c2c(F)cc(C(F)(F)F)cc21` [Example 90, (E)-1′-(3-(4-chlorophenyl)allyl)-4-fluoro-N-((2-fluoropyridin-4-yl)methyl)-6-(trifluoromethyl)spiro[indoline-3,4′-piperidine]-1-carboxamide], the minimal effective concentration amounted to 1.8 µM in the assay with Haemonchus contortus L3 (setting [3]) and 10 µM in assay [1] (setting [4]). Besides, the Ki in assay [2] amounted to 256 nM.

Take `N#Cc1ccc2c(n1)C1(CCN(C/C=C/c3ccc(Cl)c(Cl)c3)CC1)CN2C(=O)NCc1ccnc(Cl)c1` [Example 67, (E)-N-((2-chloropyridin-4-yl)methyl)-5′-cyano-1-(3-(3,4-dichlorophenyl)allyl)spiro[piperidine-4,3′-pyrrolo[3,2-b]pyridine]-1′(2′H)-carboxamide]: the minimal effective concentration in the assay with Haemonchus contortus L3 (setting [3]) stood at 10 µM; in assay [1] (setting [4]) it was 5.7 µM. Besides, the Ki in assay [2] stood at 33.5 nM.

Regarding `O=C(NCc1ccnc(F)c1)N1CC2(CCN(C/C=C/c3ccc(C(F)(F)F)cc3)CC2)c2cc(Br)ccc21` [Example 107, 5-bromo-N-[(2-fluoro-4-pyridyl)methyl]-1′-[(E)-3-[4-(trifluoromethyl)phenyl]allyl]spiro[indoline-3,4′-piperidine]-1-carboxamide], the minimal effective concentration (with Haemonchus contortus L3 (setting [3]); in assay [1] (setting [4])) was 3.3 µM in each case. Besides, the Ki in assay [2] was 486 nM.

On to `O=C(NCc1ccnc(F)c1)N1CC2(CCN(C/C=C/c3ccc(Cl)cc3)CC2)c2c(Cl)cc(Cl)cc21` [Example 60, (E)-4,6-dichloro-1′-(3-(4-chlorophenyl)allyl)-N-((2-fluoropyridin-4-yl)methyl)spiro[indoline-3,4′-piperidine]-1-carboxamide], for which the minimal effective concentration in the assay on Haemonchus contortus L3 (setting [3]) turned out to be 100 µM; in assay [1] (setting [4]), 10 µM. In addition, the Ki in assay [2] turned out to be 986 nM.

As to `O=C(NCc1cocn1)N1CC2(CCN(C/C=C/c3ccc(Cl)c(Cl)c3)CC2)c2c1ccc1scnc21` [Example 29, (E)-1-(3-(3,4-dichlorophenyl)allyl)-N-(oxazol-4-ylmethyl)spiro[piperidine-4,8′-thiazolo[4,5-e]indole]-6′(7′H)-carboxamide], the results for the minimal effective concentration (with Haemonchus contortus L3 (setting [3]); in assay [1] (setting [4])) were 100 µM and 10 µM, respectively. In assay [2], the Ki was 367 nM.

Regarding `N#Cc1ccc(-c2ccc3c(c2)C2(CCN(C/C=C/c4ccc(C(F)(F)F)cc4)CC2)CN3C(=O)NCc2ccnc(Cl)c2)cn1` [Example 120, N-[(2-chloro-4-pyridyl)methyl]-5-(6-cyano-3-pyridyl)-1′-[(E)-3-[4-(trifluoromethyl)phenyl]allyl]spiro[indoline-3,4′-piperidine]-1-carboxamide], the figures for the minimal effective concentration (in the assay on Haemonchus contortus L3 (setting [3]); in assay [1] (setting [4])) were 100 µM and 1.2 µM, respectively. In addition, in assay [2], the Ki amounted to 13900 nM.

For the molecule `N#Cc1ccc2c(c1)C1(CCN(C/C=C/c3ccc(Cl)c(Cl)c3)CC1)CN2C(=O)NCc1ccnc(F)c1` [Example 113, 5-cyano-1′-[(E)-3-(3,4-dichlorophenyl)allyl]-N-[(2-fluoro-4-pyridyl)methyl]spiro[indoline-3,4′-piperidine]-1-carboxamide], the minimal effective concentration with Haemonchus contortus L3 (setting [3]) came out at 1 µM; in assay [1] (setting [4]) it was 2.4 µM. Besides, the Ki in assay [2] was 66.8 nM.

As to `O=C(NCc1ccnc(Cl)c1)N1CC2(CCN(C/C=C/c3ccc(Cl)cc3)CC2)c2c(F)cc(C(F)(F)F)cc21` [Example 122, (E)-1′-(3-(4-chlorophenyl)allyl)-N-((2-chloropyridin-4-yl)methyl)-4-fluoro-6-(trifluoromethyl)spiro[indoline-3,4′-piperidine]-1-carboxamide], the minimal effective concentration worked out at 0.5 µM with Haemonchus contortus L3 (setting [5]) and 10 µM in assay [1] (72 hours, read-out: Di MF). The inhibition constant Ki in assay [2] was 32.3 nM.

For the molecule `N#Cc1ccc2c(n1)C1(CCN(C/C=C/c3ccc(Cl)cc3)CC1)CN2C(=O)NCc1ccnc(Cl)c1` [Example 87, (E)-1-(3-(4-chlorophenyl)allyl)-N-((2-chloropyridin-4-yl)methyl)-5′-cyanospiro[piperidine-4,3′-pyrrolo[3,2-b]pyridine]-1′(2′H)-carboxamide], the values for the minimal effective concentration (in the assay on Haemonchus contortus L3 (setting [3]); in assay [1] (setting [4])) were 18.2 µM and 5.7 µM, respectively. Besides, in assay [2], the Ki came to 38.1 nM.

Take `N#Cc1cccc2c1C1(CCN(C/C=C/c3ccc(Cl)cc3)CC1)CN2C(=O)NCc1ccnc(Cl)c1` [Example 165, (E)-1′-(3-(4-chlorophenyl)allyl)-N-((2-chloropyridin-4-yl)methyl)-4-cyanospiro[indoline-3,4′-piperidine]-1-carboxamide]: the minimal effective concentration with Haemonchus contortus L3 (setting [3]) amounted to 16.7 µM; in assay [1] (setting [4]), 8.3 µM. The Ki in assay [2] was 38.4 nM.

`COc1ccc(/C=C/CN2CCC3(CC2)CN(C(=O)NCc2ccnc(Cl)c2)c2ccc4scnc4c23)cc1` [Example 42, (E)-N-((2-chloropyridin-4-yl)methyl)-1-(3-(4-methoxyphenyl)allyl)spiro[piperidine-4,8′-thiazolo[4,5-e]indole]-6′(7′H)-carboxamide]: the minimal effective concentration is more than 100 µM with Haemonchus contortus L3 (setting [3]) and 10 µM in assay [1] (setting [4]). For the same molecule, the Ki in assay [2] came out at 55 nM.

Take `O=C(NCc1ccnc(Cl)c1)N1CC2(CCN(C/C=C/c3ccc(C(F)(F)F)cc3)CC2)c2c1cccc2C(F)(F)F` [Example 152, (E)-N-((2-chloropyridin-4-yl)methyl)-4-(trifluoromethyl)-1′-(3-(4-(trifluoromethyl)phenyl)allyl)spiro[indoline-3,4′-piperidine]-1-carboxamide]: the minimal effective concentration in the assay with Haemonchus contortus L3 (setting [3]) stood at 5.7 µM; in assay [1] (setting [4]), 4.4 µM. Further, the Ki in assay [2] came out at 1320 nM.
